# Biological target: JMJD2C (Homo sapiens (Human), UniProt Q9H3R0)
# Test: JMJD2C TR-FRET enzyme inhibition assay
# Type: biochemical
# Conditions: H3K9me3-biotin peptide
# Excerpt: This assay determines the ability of a test compound to inhibit Jarid1A, Jarid1B, and JMJD2C demethylase activity. Baculovirus expressed Jarid1A (GenBank Accession #NM_001042603, AA1-1090) was purchased from BPS Bioscience (Cat#50110). Baculovirus expressed Jarid1B (GenBank Accession #NM_006618, AA 2-751) was purchased from BPS Bioscience (Cat #50121) or custom made by MolecularThroughput. Baculovirus-expressed JMJD2C (GenBank Accession #BC143571, AA 2-372) was purchased from BPS Bioscience (Cat#50105).
# The ability of test compounds to inhibit the activity of JMJD2C was determined in 384-well plate format under the following reaction conditions: 0.3 nM JMJD2C, 300 nM H3K9me3-biotin labeled peptide (Anaspec cat #64360), 2 μM alpha-ketoglutaric acid in assay buffer of 50 mM HEPES, pH7.3, 0.005% Brij35, 0.5 mM TCEP, 0.2 mg/ml BSA, 50 μM sodium L-ascorbate, and 2 μM ammonium iron(II) sulfate. Reaction product was determined quantitatively by TR-FRET after the addition of detection reagent Phycolink Streptavidin-allophycocyanin (Prozyme) and Europium-anti-di-methylated histone H3 lysine 9 (H3K9me2) antibody (PerkinElmer) in the presence of 5 mM EDTA in LANCE detection buffer (PerkinElmer) at a final concentration of 50 nM and 1 nM, respectively.
# The reaction mixture was incubated at room temperature for 30 min, and terminated by the addition of 6 μl of 5 mM EDTA in LANCE detection buffer containing 100 nM Phycolink Streptavidin-allophycocyanin and 2 nM Europium-anti-H3K9me2 antibody. Plates were read by EnVisionMultilabel Reader in TR-FRET mode (excitation at 320 nm, emission at 615 nm and 665 nm) after 1 hr incubation at rt. A ratio was calculated (665/615) for each well and fitted to determine inhibition constant (IC50).
# Sequence of JMJD2C (Q9H3R0 2-372): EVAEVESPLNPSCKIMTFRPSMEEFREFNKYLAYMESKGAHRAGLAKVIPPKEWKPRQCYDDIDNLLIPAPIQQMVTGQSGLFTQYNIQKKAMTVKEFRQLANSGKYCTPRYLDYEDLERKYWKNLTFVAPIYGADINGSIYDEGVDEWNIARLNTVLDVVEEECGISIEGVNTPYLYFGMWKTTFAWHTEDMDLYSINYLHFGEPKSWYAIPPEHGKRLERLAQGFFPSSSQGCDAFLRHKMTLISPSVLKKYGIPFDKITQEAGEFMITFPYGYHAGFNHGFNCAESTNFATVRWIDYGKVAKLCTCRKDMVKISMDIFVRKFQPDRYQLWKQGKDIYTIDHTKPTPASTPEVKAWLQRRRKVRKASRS
row,Substance,IC50
1,"3-{[(6-chloro-1,2,3,4-tetrahydronaphthalen- 1-yl)methyl]-amino}pyridine-4- carboxylic acid [Example 68]",100 to 1000 nM
2,"3-{[(6-chloro-1-hydroxy-1,2,3,4- tetrahydronaphthalen-1-yl)methyl]amino} pyridine-4-carboxylic acid [Example 67]",100 to 1000 nM
3,"3-{[(7-fluoro-3,4-dihydro-2H-chromen-4- yl)methyl]-amino}pyridine-4-carboxylic acid [Example 65]",< 100 nM
